Drawing on patent publication US12247032B2, “Substituted pyrazolo[1,5-a]pyrimidines as inhibitors of JAK kinases” (Genentech, Inc., priority 2019, dated 2025), this text covers Ki and IC50 for ten molecules.

Structures are written as SMILES. Where two headings read alike, the source gives them in different places.

The target in test [1] is T1, Recombinant human JAK2 kinase domain protein (Residues 812-1132) (Homo sapiens, UniProt O60674).
T1 construct: human JAK2 kinase domain protein (Residues 812-1132); made in house; host or cells: insect cells
Kind of test: JAK2 biochemical assay (microfluidic mobility shift, peptide phosphorylation). The settings on record: 25 μM ATP, 0.2 nM total JAK2; Ki calculated from Ki app (tight-binding, competitive); read-out: Biochem JAK2 Ki. As to the method: (§1) The in vitro biochemical assays quantify JAK-catalyzed phosphorylation of a synthetic peptide, as detected using a LabChip® EZ Reader II microfluidic mobility shift instrument (PerkinElmer; Waltham, MA). The substrate peptide Y-1B has the sequence 5-FAM-VALVDGYFRLTT-NH2. Y-1B is fluorescently labeled on the N-terminus with 5-FAM (5-carboxyfluorescein) and contains a single tyrosine residue (Y) that can be phosphorylated by JAK activity. The substrate peptide stock is prepared in DMSO at 5 mM. Purified recombinant human JAK1 kinase domain protein (Residues 854-1154) was expressed in insect cells and procured from Proteros Biostructures GmbH (Martinsried, Germany). Recombinant human JAK2 kinase domain protein (Residues 812-1132) was expressed in insect cells and purified at Genentech, Inc. (South San Francisco, CA).
(§2) The kinase reaction mixtures contained 100 mM 4-(2-hydroxyethyl)-1-piperazineethanesulfonic acid (HEPES) buffer (pH 7.2), 10 mM magnesium chloride, 0.015% Brij® 35, 4 mM dithiothreitol, 1.5 μM Y-1B peptide substrate, 25 μM adenosine triphosphate (ATP), 1 nM total JAK1 or 0.2 nM total JAK2, and up to 1000 nM test compound in a final concentration of 2% (volume to volume [v/v]) DMSO. In each titration experiment, test compound was tested in duplicate at each of the twelve concentrations. Blank reactions contained ATP, peptide, and DMSO, but no JAK or test compound, whereas uninhibited control reactions contained ATP, peptide, JAK, and DMSO, but no test compound.
(§3) Peptide plus ATP mixture (24 μL) was added to 1 μL of test compound in DMSO (or DMSO alone). The reactions were initiated by adding 25 μL of JAK enzyme to the inhibitor/peptide/ATP mixture before thoroughly mixing the resultant solution. Reactions were incubated at room temperature (22° C.-23° C.) in a final volume of 50 μL per well in 384-well plates. After a 30-minute incubation, the reactions were stopped by adding 25 μL of 150 mM ethylenediaminetetraacetic acid in 100 mM HEPES buffer (pH 7.2) containing 0.015% Brij 35 to each well.
(§4) In each reaction, the residual Y-1B substrate and the phospho-peptide product generated were separated using the EZ Reader 1 instrument. Electrophoretic separation of molecules of product from molecules of substrate was achieved using downstream and upstream voltages of −500 and −2600 V, respectively, at an operating pressure of −1.3 psi. The 5-FAM group present on both the substrate and product peptides was excited at 488 nm, the fluorescence was detected at 530 nm, and the peak heights were reported.
(§5) The extent (or percent) of conversion of substrate to product was calculated from the corresponding peak heights in the electropherogram using HTS Well Analyzer software, Version 5.2 (PerkinElmer), and the following equation (Equation 1): % conversion=[P[…](S+P)]×100 Equation 1 where S and P represent the peak heights of the substrate and product, respectively. After any baseline signal from blank wells containing no JAK was subtracted from the signal of all test wells, the % conversion data were converted to fractional activity as shown in Equation 2, where νi and νo are the % conversion in the presence and absence of test compound, respectively. The % conversion observed in the uninhibited control reactions containing JAK and DMSO vehicle, but no test compound, was defined to have fractional activity=1 (with no inhibitor present, νi=νo), whereas blank wells with no JAK were defined as having fractional activity=0. Fractional activity was plotted against test compound concentration and the data were fitted using XLfit software (IDBS; Guildford, United Kingdom) to a tight-binding apparent inhibition constant (Ki^app) quadratic equation (see Equation 2) (Williams J W, Morrison J F. The kinetics of reversible tight-binding inhibition. Methods Enymol 1979; 63:437-67), which was used to calculate fractional activity and Ki^app […]

For test [2], the target named is T2, recombinant human JAK1 kinase domain protein (Residues 854-1154) (Homo sapiens, UniProt P23458).
T2 construct: human JAK1 kinase domain protein (Residues 854-1154); purchased Proteros Biostructures GmbH (Martinsried, Germany); host or cells: insect cells
Kind of test: JAK1 biochemical assay (microfluidic mobility shift, peptide phosphorylation). The settings on record: 25 μM ATP, 1 nM total JAK1; Ki calculated from Ki app (tight-binding, competitive); read-out: Biochem JAK1 Ki. As to the method: as §1, §2, §3, §4, §5

Test [3] relates to JAK1 (IL-13-stimulated STAT6 phosphorylation in BEAS-2B cells). Kind of test: P-STAT6 BEAS-2B+IL-13 cell assay. The class given is cell-based, human. The settings on record: 1 hour compound, IL-13 15 minutes, IC50 by four-parameter fit, read-out: Cellular JAK1 PSTAT6 BEAS2B + IL13. As to the method:
In order to study the effect of JAK1 inhibitors in a cell line that is relevant to the cell biology of human asthma, an IL-13-stimulated STAT6 phosphorylation assay in the human lung bronchial epithelial BEAS-2B cell line was developed.
BEAS-2B cells (ATCC® CRL-9609™) were grown in Bronchial Epithelial Growth Medium (BEGM) (Lonza Catalog No. CC-3170; Walkersville, MD; or PromoCell Catalog No. C-21060; Heidelberg, Germany). Test compound stock solutions (0.5 mM in DMSO) were serially diluted 1:2 in DMSO to generate a 10-point concentration curve (at 500× test concentration), which was further diluted by a 50-fold dilution step in BEGM to generate a 10× concentration curve (in 2% DMSO). Cells were plated at 100,000 cells/well in 200 μL of BEGM in 96-well plates and incubated for 48 hours at 37° C. in a humidified incubator. Medium was aspirated from the cells and replaced with 70 μL of fresh BEGM. Diluted test compound (10 μL; or 2% DMSO in assay medium) was added to the cells, and the plates were incubated for 1 hour at 37° C. in a humidified incubator. Twenty μL of 250 ng/mL human recombinant IL-13 (Bio Techne Catalog No. 213-ILB) was then added to the cells and incubated for 15 minutes at 37° C. Medium was aspirated from the cells and 60 μL of ice-cold 1×cell lysis buffer (Cell Signaling Technologies; Catalog No. 9803S) containing 1 mM PMSF was added to the cells. Assay plates were incubated at −80° C. for at least 1 hour. P-STAT6 was measured by coating GAR plates (MSD; Catalog No. L45RA-1) with rabbit anti-human total STAT6 antibody (Cell Signaling Technologies; Catalog No. 9362S), incubating the cell lysates in the coated plates overnight at 4° C., and then detecting with mouse anti-phospho-STAT6 (Tyr641) Clone 16E12 antibody (Millipore; Catalog No. 05-590, custom labeled by MSD with SULFO-tag) using standard MSD plate processing, washing, and detection protocols. Plates were read on the MESO SECTOR S600.
Data analysis was performed by subtracting negative control values from all wells and determining percent of control using the positive control values; the IC50 was determined with a four-parameter logistic fit model as shown in Equation 4.

T2 sequence (P23458 854-1154): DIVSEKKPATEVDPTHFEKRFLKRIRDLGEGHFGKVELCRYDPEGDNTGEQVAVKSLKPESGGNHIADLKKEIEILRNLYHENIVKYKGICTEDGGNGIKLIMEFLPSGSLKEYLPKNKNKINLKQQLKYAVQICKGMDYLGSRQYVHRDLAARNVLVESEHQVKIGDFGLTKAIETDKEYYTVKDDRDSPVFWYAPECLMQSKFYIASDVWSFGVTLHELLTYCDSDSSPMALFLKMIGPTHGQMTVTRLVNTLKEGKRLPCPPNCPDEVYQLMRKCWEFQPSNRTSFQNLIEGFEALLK
T1 sequence (O60674 812-1132): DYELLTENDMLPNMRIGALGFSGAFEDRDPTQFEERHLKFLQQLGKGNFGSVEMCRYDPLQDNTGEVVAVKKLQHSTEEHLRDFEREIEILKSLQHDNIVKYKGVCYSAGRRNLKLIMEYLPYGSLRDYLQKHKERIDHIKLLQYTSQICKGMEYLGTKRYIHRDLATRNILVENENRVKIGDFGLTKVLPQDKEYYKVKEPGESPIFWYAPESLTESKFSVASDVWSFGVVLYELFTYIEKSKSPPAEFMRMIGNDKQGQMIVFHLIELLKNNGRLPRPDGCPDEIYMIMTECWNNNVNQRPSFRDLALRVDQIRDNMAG

In the case of `CN1CCC[C@H]1CN1CC(n2nnc(Cn3cc(NC(=O)c4cnn5cccnc45)c(-c4cc(OC(F)F)ccc4OC(F)F)n3)n2)C1` (racemic) [Example 46, N-[3-[2,5-bis(difluoromethoxy)phenyl]-1-[[2-[1-[[rac-(2S)-1-methylpyrrolidin-2-yl]methyl]azetidin-3-yl]tetrazol-5-yl]methyl]pyrazol-4-yl]pyrazolo[1,5-a]pyrimidine-3-carboxamide; formic acid], the figures for the Ki in test [1] and in test [2] were 0.4 nM and 0.49 nM, respectively. For the same molecule, the IC50 in test [3] (Homo sapiens, BEAS-2B, 1 h) stood at 18 nM.
Consider `CN1CCC[C@H]1CN1CC(n2nnc(Cn3cc(NC(=O)c4cnn5cccnc45)c(-c4cc(OC(F)F)ccc4OC(F)F)n3)n2)C1` (racemic) [Example 52, N-[3-[2,5-bis(difluoromethoxy)phenyl]-1-[[2-[1-[[rac-(2R)-1-methylpyrrolidin-2-yl]methyl]azetidin-3-yl]tetrazol-5-yl]methyl]pyrazol-4-yl]pyrazolo[1,5-a]pyrimidine-3-carboxamide], for which the Ki in test [1] is 0.39 nM; in test [2], 0.38 nM. The IC50 in test [3] was determined as 19 nM.
In the case of `CN1CCC[C@H]1Cn1nnnc1Cn1cc(NC(=O)c2cnn3cccnc23)c(-c2cc(OC(F)F)ccc2OC(F)F)n1` (racemic) [Example 54, N-[3-[2,5-bis(difluoromethoxy)phenyl]-1-[[1-[[rac-(2S)-1-methylpyrrolidin-2-yl]methyl]tetrazol-5-yl]methyl]pyrazol-4-yl]pyrazolo[1,5-a]pyrimidine-3-carboxamide], the Ki is 0.45 nM in test [1] and 0.75 nM in test [2]. Also, in test [3] (Homo sapiens, BEAS-2B, 1 h), the IC50 was 51 nM.
For `CN1CCC(n2nnc(Cn3cc(NC(=O)c4cnn5cccnc45)c(-c4cc(OC(F)F)ccc4OC(F)F)n3)n2)C1` (single isomer, unassigned) [Example 29, N-[3-[2,5-bis(difluoromethoxy)phenyl]-1-[[2-(1-methylpyrrolidin-3-yl)tetrazol-5-yl]methyl]pyrazol-4-yl]pyrazolo[1,5-a]pyrimidine-3-carboxamide] the same measures were 0.25 nM, 0.43 nM and 15 nM.
Take `CN1CCC(n2nnc(Cn3cc(NC(=O)c4cnn5cccnc45)c(-c4cc(OC(F)F)ccc4OC(F)F)n3)n2)C1` (single isomer, unassigned) [Example 30, N-[3-[2,5-bis(difluoromethoxy)phenyl]-1-[[2-(1-methylpyrrolidin-3-yl)tetrazol-5-yl]methyl]pyrazol-4-yl]pyrazolo[1,5-a]pyrimidine-3-carboxamide]: the Ki was 0.31 nM in test [1] and 0.4 nM in test [2]. In test [3], the IC50 was found to be 17 nM.
Consider `CN(C)CCN1CCC(n2nnc(Cn3cc(NC(=O)c4cnn5cccnc45)c(-c4cc(OC(F)F)ccc4OC(F)F)n3)n2)C1` (single isomer, unassigned) [Example 67, N-[3-[2,5-bis(difluoromethoxy)phenyl]-1-[[2-[1-[2-(dimethylamino)ethyl]pyrrolidin-3-yl]tetrazol-5-yl]methyl]pyrazol-4-yl]pyrazolo[1,5-a]pyrimidine-3-carboxamide], for which the Ki was 0.42 nM in test [1] and 0.53 nM in test [2]. The IC50 in test [3] (Homo sapiens, BEAS-2B, 1 h) worked out at 56 nM.
`CN(C)CCN1CCC(n2nnc(Cn3cc(NC(=O)c4cnn5cccnc45)c(-c4cc(OC(F)F)ccc4OC(F)F)n3)n2)C1` (single isomer, unassigned) [Example 68, N-[3-[2,5-bis(difluoromethoxy)phenyl]-1-[[2-[1-[2-(dimethylamino)ethyl]pyrrolidin-3-yl]tetrazol-5-yl]methyl]pyrazol-4-yl]pyrazolo[1,5-a]pyrimidine-3-carboxamide]: the Ki in test [1] is 0.43 nM; in test [2], 0.46 nM. Further, the IC50 in test [3] worked out at 41 nM.
Taken in the same sequence, the figures for `CN1CCC(N2CC(n3nnc(Cn4cc(NC(=O)c5cnn6cccnc56)c(-c5cc(OC(F)F)ccc5OC(F)F)n4)n3)C2)C1` (single isomer, unassigned) [Example 73, N-[3-[2,5-bis(difluoromethoxy)phenyl]-1-[[2-[1-(1-methylpyrrolidin-3-yl)azetidin-3-yl]tetrazol-5-yl]methyl]pyrazol-4-yl]pyrazolo[1,5-a]pyrimidine-3-carboxamide] were 0.55 nM, 0.64 nM and 43 nM.
Taken in the same sequence, the figures for `CN(C)C1CCC(N2CC(n3nnc(Cn4cc(NC(=O)c5cnn6cccnc56)c(-c5cc(OC(F)F)ccc5OC(F)F)n4)n3)C2)C1` (single isomer, unassigned) [Example 74, N-[3-[2,5-bis(difluoromethoxy)phenyl]-1-[[2-[1-[3-(dimethylamino)cyclopentyl]azetidin-3-yl]tetrazol-5-yl]methyl]pyrazol-4-yl]pyrazolo[1,5-a]pyrimidine-3-carboxamide] were 0.47 nM, 0.55 nM and 93 nM.
Taken in the same sequence, the figures for `CN(C)C1CCC(N2CC(n3nnc(Cn4cc(NC(=O)c5cnn6cccnc56)c(-c5cc(OC(F)F)ccc5OC(F)F)n4)n3)C2)C1` (single isomer, unassigned) [Example 75, N-[3-[2,5-bis(difluoromethoxy)phenyl]-1-[[2-[1-[3-(dimethylamino)cyclopentyl]azetidin-3-yl]tetrazol-5-yl]methyl]pyrazol-4-yl]pyrazolo[1,5-a]pyrimidine-3-carboxamide] were 1.1 nM, 1.1 nM and 200 nM.
